# Key:
# [1] = molecular target: T1, α5 subunit-radixin interaction (Mus musculus, UniProt P26043); test: Co-immunoprecipitation and Western blot of α5 subunit-radixin coupling in hippocampal tissue lysate; assay type: binding; settings: 20 μM peptide without TAT sequence, one hour incubation
# T1 construct: tissue lysate prepared from the hippocampus of adult mice; from tissue; host or cells: hippocampus of adult mice (C57BL/6J×SvEv)
# Protocol: The experiments used tissue lysate prepared from the hippocampus of adult mice (C57BL/6J×SvEv, 2-4 month old, male). Hippocampal tissue was homogenized in ice-cold RIPA buffer (20 mM Tris-HCL, pH 7.5, 150 mM NaCl, 1 mM Na2EDTA, 1 mM EGTA, 1% NP-40, 1% sodium deoxycholate, 2.5 mM sodium pyrophosphate, 1 mM β-glycerophosphate) supplemented with 1 mM sodium orthovanadate and 1% protease inhibitor cocktail and 1% phosphatase inhibitor cocktail (Roche Diagnostics, GmbH, Manheim Germany). The tissue lysate was subsequently spun at 14,000 rpm for 30 min with the Microfuge 22R Centrifuge (Beckman Coulter™, Brea, California, US). The supernatant was collected and frozen at −20 C°. The next day, the supernatant, after thawing, was re-centrifuged at 14,000 rpm for another 30 min to clear the potential undissolved or pellet substances. After spinning twice, the supernatant was collected for subsequent experiments.
# One hour following the incubation, the antibodies (2-4 μg) against either α5 subunit (cat #sc—31417, Santa Cruz Biotechnology, Inc., 10410 Finnell St. Dallas, TX, 75220, USA) or radixin (cat #ab91312, Abcam Inc., c/o 913860, PO Box 4090 Stn A, Toronto, ON M5W 0E9), or 4 μg of non-specific IgG protein (cat #sc—2028, Santa Cruz Biotechnology, Inc., 10410 Finnell St. Dallas, TX, 75220, USA), were added to the lysate solution. […]
# [2] = tested on: GABAA receptor-mediated tonic current in hippocampal neurons; test: Whole-cell voltage-clamp recordings of tonic current in astrocyte-neuron co-cultures; assay type: cell-based, mouse; settings: co-treatment with etomidate 1 μM; recordings 24 h later
# α5GABAA receptors = test: Surface biotinylation assay of α5 subunit in ex vivo brain slices after i.p. peptide; set-up: species or system mouse; settings: peptide 20 mg/kg, etomidate-treated adult male mice
# Protocol: We next asked whether injection of inhibitory peptide, when administered to mice in vivo by I.P. injection, reduced the level of α5GABAA receptors expressed in the hippocampus. To test whether the peptide reduces α5GABAA receptor cell-surface expression in vivo, we took advantage of a mouse model that we developed recently (Zurek, et al., 2014), in which up-regulation of α5GABAA receptor cell surface expression causes memory deficits. Adult mice (22-25 g) were treated with etomidate (8 mg/kg, i.p.), and sacrificed 24 hrs later according to a protocol approved by the Animal Care Committee of the University of Toronto. The hippocampi were collected and subject to experiments. We first measured the level of radixin phosphorylation, because radixin phosphorylation is required for the recruitment of α5GABAA receptors to extrasynaptic sites of the neurons (Loebrich et al., 2006; Hausrat et al., 2015). The antibody against threonine at 564 of radixin, which is specific for radixin phosphorylation involving α5GABAA receptor extra-synaptic trafficking, was used for these studies (Choii et al., 2015; Hausrat et al., 2015). […] We next examined whether the inhibitory peptide prevented α5GABAA receptor from trafficking to surface membrane in vivo by studying ex vivo brain slices. […]
# [3] = tested on: α5GABAA receptor cell-surface expression; test: Receptor cell-surface ELISA assay in cultured hippocampal neurons; assay type: cell-based, mouse; settings: neurons treated with peptide without exposure to etomidate
# T1 sequence (P26043 whole entry): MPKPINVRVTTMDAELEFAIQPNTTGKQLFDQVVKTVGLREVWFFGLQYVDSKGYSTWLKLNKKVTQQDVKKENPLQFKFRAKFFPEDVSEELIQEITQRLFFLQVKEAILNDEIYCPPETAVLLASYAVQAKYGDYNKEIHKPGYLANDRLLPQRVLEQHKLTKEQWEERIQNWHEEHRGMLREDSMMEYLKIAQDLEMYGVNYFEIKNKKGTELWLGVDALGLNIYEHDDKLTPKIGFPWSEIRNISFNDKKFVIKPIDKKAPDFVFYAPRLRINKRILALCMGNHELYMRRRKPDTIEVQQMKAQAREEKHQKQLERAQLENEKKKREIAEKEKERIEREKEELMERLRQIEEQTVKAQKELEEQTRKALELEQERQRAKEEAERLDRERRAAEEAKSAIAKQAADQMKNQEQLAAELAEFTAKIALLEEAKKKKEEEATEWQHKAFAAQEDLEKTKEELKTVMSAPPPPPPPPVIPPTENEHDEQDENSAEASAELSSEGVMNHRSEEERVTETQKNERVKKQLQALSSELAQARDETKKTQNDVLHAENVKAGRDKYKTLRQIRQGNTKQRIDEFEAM
sequence,measurement,setting,value
NYFTKRGWAWDGKKAL [inhibitory peptide],association between α5 subunit and radixin,[1],reduced the association
same,etomidate-induced increase in tonic current,[2],reversed
same,expression of α5GABAA receptors on the cell surface,α5GABAA receptors,selectively prevented
same,α5GABAA total protein production,α5GABAA receptors,did not change
same,"baseline α5GABAA receptors expression, total or cell surface level",[3],does not alter

# From patent US12054562B2, “Cell-permeable inhibitory agent and methods of use thereof in treatment of cognitive and mood disorders” (priority 2015, dated 2024)
